Laboratory results reported in ChEMBL document CHEMBL4196076, “An access to a library of novel triterpene derivatives with a promising pharmacological potential by Ugi and Passerini multicomponent reactions” (Eur J Med Chem, 2018).

What was measured:
HT-29 = assay: Cytotoxicity against human HT-29 cells after 96 hrs by sulforhodamine-B assay; format: functional, cell-based; settings: HT-29, 96 h
MCF7 = assay: Cytotoxicity against human MCF7 cells after 96 hrs by sulforhodamine-B assay; format: functional, cell-based; settings: MCF7, 96 h
518A2 = assay: Cytotoxicity against human 518A2 cells after 96 hrs by sulforhodamine-B assay; format: functional, cell-based; settings: 518A2, 96 h
A2780 [1] = assay: Cytotoxicity against human A2780 cells after 96 hrs by sulforhodamine-B assay; format: functional, cell-based; settings: A2780, 96 h
A549 = assay: Cytotoxicity against human A549 cells after 96 hrs by sulforhodamine-B assay; format: functional, cell-based; settings: A549, 96 h
FaDu = assay: Cytotoxicity against human FADU cells after 96 hrs by sulforhodamine-B assay; format: functional, cell-based
NIH3T3 = assay: Cytotoxicity against mouse NIH/3T3 cells after 96 hrs by sulforhodamine-B assay; format: cell-based; settings: NIH3T3, 96 h
A2780 [2] = assay: Cytotoxicity against human A2780 cells assessed as morphological changes after 48 hrs by acridine orange/propidium iodide staining based fluorescence microscopic method; format: functional, cell-based
[3] = Selectivity index, ratio of EC50 for mouse NIH/3T3 cells to EC50 for human A2780 cells; format: toxicity; settings: NIH/3T3 cells and A2780 cells, read-out: Ratio EC50
A2780 [4] = assay: Cell cycle arrest in human A2780 cells assessed as accumulation at sub-G1 phase at 2 uM after 48 hrs by propidium iodide/RNase-staining based flow cytometric analysis; format: functional
A2780 [5] = assay: Cell cycle arrest in human A2780 cells assessed as accumulation at G0/G1 phase at 2 uM after 48 hrs by propidium iodide/RNase-staining based flow cytometric analysis (reference value: 57.5 +/- 4.5%); format: functional
A2780 [6] = assay: Cell cycle arrest in human A2780 cells assessed as accumulation at S phase at 2 uM after 48 hrs by propidium iodide/RNase-staining based flow cytometric analysis (reference value: 29.6 +/- 3.1%); format: functional
A2780 [7] = assay: Cell cycle arrest in human A2780 cells assessed as accumulation at G2/M phase at 2 uM after 48 hrs by propidium iodide/RNase-staining based flow cytometric analysis (reference value: 12.9 +/- 1.4%); format: functional
A2780 [8] = assay: Cell cycle arrest in human A2780 cells assessed as accumulation at sub-G1 phase at 1.2 uM after 48 hrs by propidium iodide/RNase-staining based flow cytometric analysis; format: functional
A2780 [9] = assay: Cell cycle arrest in human A2780 cells assessed as accumulation at G0/G1 phase at 1.2 uM after 48 hrs by propidium iodide/RNase-staining based flow cytometric analysis (reference value: 57.5 +/- 4.5%); format: functional
A2780 [10] = assay: Cell cycle arrest in human A2780 cells assessed as accumulation at S phase at 1.2 uM after 48 hrs by propidium iodide/RNase-staining based flow cytometric analysis (reference value: 29.6 +/- 3.1%); format: functional
A2780 [11] = assay: Cell cycle arrest in human A2780 cells assessed as accumulation at G2/M phase at 1.2 uM after 48 hrs by propidium iodide/RNase-staining based flow cytometric analysis (reference value: 12.9 +/- 1.4%); format: functional
A2780 [12] = assay: Induction of apoptosis in human A2780 cells assessed as vital cells at 2 uM after 48 hrs by Annexin V-FITC/propidium iodide staining-based flow cytometric analysis (reference value: 78.4 +/- 2.1%); format: functional
A2780 [13] = assay: Induction of apoptosis in human A2780 cells assessed as apoptotic cells at 2 uM after 48 hrs by Annexin V-FITC/propidium iodide staining-based flow cytometric analysis (reference value: 2.8 +/- 2.1%); format: functional
A2780 [14] = assay: Induction of apoptosis in human A2780 cells assessed as secondary necrotic cells at 2 uM after 48 hrs by Annexin V-FITC/propidium iodide staining-based flow cytometric analysis (reference value: 8.2 +/- 0.7%); format: functional
A2780 [15] = assay: Induction of apoptosis in human A2780 cells assessed as necrotic cells at 2 uM after 48 hrs by Annexin V-FITC/propidium iodide staining-based flow cytometric analysis (reference value: 10.6 +/- 1.2%); format: functional
A2780 [16] = assay: Induction of apoptosis in human A2780 cells assessed as vital cells at 1.2 uM after 48 hrs by Annexin V-FITC/propidium iodide staining-based flow cytometric analysis (reference value: 78.4 +/- 2.1%); format: functional
A2780 [17] = assay: Induction of apoptosis in human A2780 cells assessed as apoptotic cells at 1.2 uM after 48 hrs by Annexin V-FITC/propidium iodide staining-based flow cytometric analysis (reference value: 2.8 +/- 2.1%); format: functional
A2780 [18] = assay: Induction of apoptosis in human A2780 cells assessed as secondary necrotic cells at 1.2 uM after 48 hrs by Annexin V-FITC/propidium iodide staining-based flow cytometric analysis (reference value: 8.2 +/- 0.7%); format: functional
A2780 [19] = assay: Induction of apoptosis in human A2780 cells assessed as necrotic cells at 1.2 uM after 48 hrs by Annexin V-FITC/propidium iodide staining-based flow cytometric analysis (reference value: 10.6 +/- 1.2%); format: functional

For `CC(=O)O[C@@H]1C[C@]2(C)[C@H]3CC=C4[C@@H]5CC(C)(C)CC[C@]5(C(=O)N(CC(=O)NCc5ccccc5)Cc5ccccc5)CC[C@@]4(C)[C@]3(C)CC[C@H]2C(C)(C)[C@H]1OC(C)=O`, the EC50 (HT-29) was 2.1 µM, the EC50 (MCF7) was 2.1 µM and the EC50 (518A2) was 1.2 µM. The EC50 (A2780 [1]) was 0.3 µM, the EC50 (A549) was 2.2 µM and the EC50 (FaDu) was 2.1 µM. The EC50 (NIH3T3) was 21.9 µM, the Activity (A2780 [2]) was “Dose-dependent effect” and the selectivity ratio [3] was 73. The Activity (A2780 [4]) was 4.6%, the Activity (A2780 [5]) was 60.3% and the Activity (A2780 [6]) was 30.7%. The Activity (A2780 [7]) was 5.1%, the Activity (A2780 [8]) was 6.8% and the Activity (A2780 [9]) was 57.1%. The Activity (A2780 [10]) was 28.7%, the Activity (A2780 [11]) was 7.6% and the Activity (A2780 [12]) was 55.1%. It also gave an Activity (A2780 [13]) of 8.4%, an Activity (A2780 [14]) of 19.8% and an Activity (A2780 [15]) of 16.7%. It also gave an Activity (A2780 [16]) of 72.7%, an Activity (A2780 [17]) of 4.2% and an Activity (A2780 [18]) of 11.5%. For the same compound, the Activity (A2780 [19]) was 11.6%.
